# Measurements taken from ChEMBL document CHEMBL5465560, “Selectivity Literature for EUbOPEN Chemogenomic Library” (2024).
# What was measured:
# [1] = biological target: Histone-lysine N-methyltransferase PRDM9 (Homo sapiens) (UniProt Q9NQV7); test: Selectivity interaction (Methyltransferase screen (radiometric assays, panel of 8 PRMTs, 21 protein lysine methyltransferases, 3 DNA methyltransferases, and one RNA methyltransferase)) EUB0000271b PRDM9
# [2] = biological target: T1, Atypical kinase COQ8B, mitochondrial (Homo sapiens) (UniProt Q96D53); conditions: at 10 µM
# T1 sequence (whole entry): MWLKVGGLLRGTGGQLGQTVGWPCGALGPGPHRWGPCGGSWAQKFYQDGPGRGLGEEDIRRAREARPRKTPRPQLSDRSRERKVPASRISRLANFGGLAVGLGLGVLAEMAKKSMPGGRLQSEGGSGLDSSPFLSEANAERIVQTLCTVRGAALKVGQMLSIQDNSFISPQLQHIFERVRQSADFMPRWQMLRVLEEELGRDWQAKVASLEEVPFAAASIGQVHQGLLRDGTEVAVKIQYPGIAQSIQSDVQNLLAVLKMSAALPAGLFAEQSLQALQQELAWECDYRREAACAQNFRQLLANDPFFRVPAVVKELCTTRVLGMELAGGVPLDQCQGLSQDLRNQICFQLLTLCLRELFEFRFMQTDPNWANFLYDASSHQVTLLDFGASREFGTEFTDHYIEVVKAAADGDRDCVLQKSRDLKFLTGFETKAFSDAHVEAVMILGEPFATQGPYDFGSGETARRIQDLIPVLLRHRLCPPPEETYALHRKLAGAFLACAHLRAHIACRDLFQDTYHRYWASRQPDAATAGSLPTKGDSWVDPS
# [3] = biological target: Phosphatidylinositol 4-phosphate 3-kinase C2 domain-containing subunit beta (Homo sapiens) (UniProt O00750); test: Selectivity interaction (KinomeScan (DiscoverX)) EUB0001079a PIK3C2B; conditions: at 1 µM
# [4] = biological target: T2, Serine/threonine-protein kinase Sgk3 (Homo sapiens) (UniProt Q96BR1); test: Selectivity interaction (SelectScreen profiling (Invitrogen)) EUB0000607a SGK3; conditions: at 2 µM
# T2 sequence (whole entry): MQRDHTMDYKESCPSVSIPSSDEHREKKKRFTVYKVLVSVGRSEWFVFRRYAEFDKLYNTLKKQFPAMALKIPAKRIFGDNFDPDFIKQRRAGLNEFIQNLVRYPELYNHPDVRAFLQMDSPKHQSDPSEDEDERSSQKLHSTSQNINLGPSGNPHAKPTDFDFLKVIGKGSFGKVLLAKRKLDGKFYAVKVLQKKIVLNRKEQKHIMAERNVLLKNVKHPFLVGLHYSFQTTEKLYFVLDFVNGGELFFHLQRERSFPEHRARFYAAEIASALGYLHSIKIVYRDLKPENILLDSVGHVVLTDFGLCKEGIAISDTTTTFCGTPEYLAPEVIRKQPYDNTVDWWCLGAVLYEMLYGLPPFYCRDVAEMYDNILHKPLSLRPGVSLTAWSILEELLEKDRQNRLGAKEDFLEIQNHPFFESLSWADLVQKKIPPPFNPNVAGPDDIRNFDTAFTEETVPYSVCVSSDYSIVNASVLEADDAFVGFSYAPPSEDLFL
# [5] = biological target: Tyrosine-protein kinase Yes (Homo sapiens) (UniProt P07947); test: Selectivity interaction (KinomeScan (DiscoverX)) EUB0000607a YES1; conditions: at 10 µM
# [6] = biological target: Serine/threonine-protein kinase 32A (Homo sapiens) (UniProt Q8WU08); test: Selectivity interaction (KinomeScan (DiscoverX)) EUB0000607a STK32A; conditions: at 10 µM
# [7] = biological target: T3, Serine/threonine-protein kinase 17A (Homo sapiens) (UniProt Q9UEE5); test: Selectivity interaction (KinomeScan (DiscoverX)) EUB0001619a STK17A; conditions: at 1 µM
# T3 sequence (whole entry): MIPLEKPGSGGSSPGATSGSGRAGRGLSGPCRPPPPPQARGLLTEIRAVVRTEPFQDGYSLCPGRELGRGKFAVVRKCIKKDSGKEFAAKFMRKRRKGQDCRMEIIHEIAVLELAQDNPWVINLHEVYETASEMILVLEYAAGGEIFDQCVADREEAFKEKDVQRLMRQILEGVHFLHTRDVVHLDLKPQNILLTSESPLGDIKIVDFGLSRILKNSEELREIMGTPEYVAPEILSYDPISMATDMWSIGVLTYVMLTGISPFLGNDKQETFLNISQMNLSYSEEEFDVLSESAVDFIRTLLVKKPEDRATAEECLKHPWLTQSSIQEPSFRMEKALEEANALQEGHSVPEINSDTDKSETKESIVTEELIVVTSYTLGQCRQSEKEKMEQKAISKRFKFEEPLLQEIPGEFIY
# [8] = biological target: Serine/threonine-protein kinase 38 (Homo sapiens) (UniProt Q15208); test: Selectivity interaction (ActivX KiNativ screen (ex vivo kinase selectivity in human PBMCs)) EUB0001619a STK38; type: cell-based; conditions: PBMC, at 1 µM
# [9] = biological target: Cyclin-dependent kinase 4/cyclin D1 (Homo sapiens) (UniProt P11802+P24385); conditions: at 10 µM
# [10] = biological target: Protein kinase C delta type (Homo sapiens) (UniProt Q05655); test: Selectivity interaction (Kinase panel (Invitrogen)) EUB0000639a PRKCD; conditions: at 200 nM
# [11] = biological target: T4, NUAK family SNF1-like kinase 1 (Homo sapiens) (UniProt O60285); test: Selectivity interaction (KinomeScan (DiscoverX)) EUB0000666a NUAK1; conditions: at 10 µM
# T4 sequence (whole entry): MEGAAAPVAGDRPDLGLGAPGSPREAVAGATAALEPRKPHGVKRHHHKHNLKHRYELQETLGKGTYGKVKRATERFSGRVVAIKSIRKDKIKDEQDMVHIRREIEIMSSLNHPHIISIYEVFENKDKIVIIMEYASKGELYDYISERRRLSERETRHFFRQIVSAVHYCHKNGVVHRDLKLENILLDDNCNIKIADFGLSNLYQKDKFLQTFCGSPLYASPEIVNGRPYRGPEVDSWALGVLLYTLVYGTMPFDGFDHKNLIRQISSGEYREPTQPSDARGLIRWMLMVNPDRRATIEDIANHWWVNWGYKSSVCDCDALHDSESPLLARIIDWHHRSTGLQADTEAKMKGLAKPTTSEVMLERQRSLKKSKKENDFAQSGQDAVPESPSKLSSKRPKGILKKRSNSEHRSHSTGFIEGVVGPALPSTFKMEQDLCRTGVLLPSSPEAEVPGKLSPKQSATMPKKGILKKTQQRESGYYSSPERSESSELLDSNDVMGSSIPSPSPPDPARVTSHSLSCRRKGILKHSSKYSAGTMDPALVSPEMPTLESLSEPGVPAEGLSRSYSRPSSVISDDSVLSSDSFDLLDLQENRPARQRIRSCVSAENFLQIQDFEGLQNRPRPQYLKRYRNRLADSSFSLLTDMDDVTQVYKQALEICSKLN
# [12] = biological target: Epidermal growth factor receptor (Homo sapiens, UniProt P00533); test: Selectivity interaction (Rxn Biology Kinase assay) EUB0001632a EGFR; conditions: at 10 µM
# [13] = biological target: Tyrosine-protein kinase Blk (Homo sapiens) (UniProt P51451); test: Selectivity interaction (Kinase screening (Upstate/Millipore)) EUB0000604a BLK
# Sequence of Tyrosine-protein kinase Blk (Homo sapiens) (P51451 2-505 limits assumed): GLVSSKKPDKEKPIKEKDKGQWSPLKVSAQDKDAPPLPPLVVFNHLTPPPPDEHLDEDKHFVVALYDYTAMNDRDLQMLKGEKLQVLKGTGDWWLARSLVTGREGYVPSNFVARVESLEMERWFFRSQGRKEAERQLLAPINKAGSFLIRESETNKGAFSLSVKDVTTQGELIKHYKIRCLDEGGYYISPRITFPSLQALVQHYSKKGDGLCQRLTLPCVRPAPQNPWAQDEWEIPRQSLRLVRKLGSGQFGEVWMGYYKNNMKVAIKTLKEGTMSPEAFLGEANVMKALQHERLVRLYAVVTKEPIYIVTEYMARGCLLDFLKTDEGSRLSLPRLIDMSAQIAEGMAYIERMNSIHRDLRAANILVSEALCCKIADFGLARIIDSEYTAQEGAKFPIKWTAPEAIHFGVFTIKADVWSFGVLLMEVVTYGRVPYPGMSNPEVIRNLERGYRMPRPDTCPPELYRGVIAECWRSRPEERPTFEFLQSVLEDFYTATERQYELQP
# Sequence of Histone-lysine N-methyltransferase PRDM9 (Homo sapiens) (Q9NQV7 whole entry): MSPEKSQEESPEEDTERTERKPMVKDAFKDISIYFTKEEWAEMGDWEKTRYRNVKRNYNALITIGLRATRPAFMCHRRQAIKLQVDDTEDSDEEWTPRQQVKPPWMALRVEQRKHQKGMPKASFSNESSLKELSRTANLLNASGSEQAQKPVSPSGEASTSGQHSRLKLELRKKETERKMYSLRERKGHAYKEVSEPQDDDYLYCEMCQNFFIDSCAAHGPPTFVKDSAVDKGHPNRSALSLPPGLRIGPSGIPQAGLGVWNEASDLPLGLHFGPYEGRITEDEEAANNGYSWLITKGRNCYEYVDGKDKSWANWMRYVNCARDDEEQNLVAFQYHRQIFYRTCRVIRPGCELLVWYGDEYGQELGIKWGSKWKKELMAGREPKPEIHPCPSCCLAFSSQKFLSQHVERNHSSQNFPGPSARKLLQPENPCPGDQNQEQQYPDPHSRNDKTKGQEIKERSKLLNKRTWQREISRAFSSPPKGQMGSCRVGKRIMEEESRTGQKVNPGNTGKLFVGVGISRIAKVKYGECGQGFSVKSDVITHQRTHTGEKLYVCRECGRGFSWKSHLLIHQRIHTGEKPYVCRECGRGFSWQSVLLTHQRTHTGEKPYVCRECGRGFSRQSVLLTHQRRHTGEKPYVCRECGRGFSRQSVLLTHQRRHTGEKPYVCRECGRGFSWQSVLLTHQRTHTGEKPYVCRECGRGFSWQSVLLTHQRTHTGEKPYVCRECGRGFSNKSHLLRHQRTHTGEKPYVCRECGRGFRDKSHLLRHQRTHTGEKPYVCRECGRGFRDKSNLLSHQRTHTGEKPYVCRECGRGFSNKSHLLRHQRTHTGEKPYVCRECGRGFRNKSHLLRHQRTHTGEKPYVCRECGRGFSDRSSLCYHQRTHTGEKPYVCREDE
# Sequence of Tyrosine-protein kinase Yes (Homo sapiens) (P07947 2-543 limits assumed): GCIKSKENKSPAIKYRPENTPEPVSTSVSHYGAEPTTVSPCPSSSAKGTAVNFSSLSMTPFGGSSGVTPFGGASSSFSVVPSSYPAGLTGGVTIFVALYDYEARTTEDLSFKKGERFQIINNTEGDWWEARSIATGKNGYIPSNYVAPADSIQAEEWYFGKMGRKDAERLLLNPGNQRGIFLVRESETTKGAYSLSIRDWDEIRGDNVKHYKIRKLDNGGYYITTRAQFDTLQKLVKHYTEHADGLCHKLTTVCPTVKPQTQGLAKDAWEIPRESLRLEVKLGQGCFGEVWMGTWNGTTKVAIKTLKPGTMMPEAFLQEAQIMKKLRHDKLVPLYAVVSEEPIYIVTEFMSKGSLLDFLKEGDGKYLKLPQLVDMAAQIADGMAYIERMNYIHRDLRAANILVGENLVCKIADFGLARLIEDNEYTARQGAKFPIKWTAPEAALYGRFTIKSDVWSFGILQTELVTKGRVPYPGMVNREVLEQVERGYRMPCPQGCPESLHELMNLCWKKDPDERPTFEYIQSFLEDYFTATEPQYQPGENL
# Sequence of Serine/threonine-protein kinase 38 (Homo sapiens) (Q15208 2-465 limits assumed): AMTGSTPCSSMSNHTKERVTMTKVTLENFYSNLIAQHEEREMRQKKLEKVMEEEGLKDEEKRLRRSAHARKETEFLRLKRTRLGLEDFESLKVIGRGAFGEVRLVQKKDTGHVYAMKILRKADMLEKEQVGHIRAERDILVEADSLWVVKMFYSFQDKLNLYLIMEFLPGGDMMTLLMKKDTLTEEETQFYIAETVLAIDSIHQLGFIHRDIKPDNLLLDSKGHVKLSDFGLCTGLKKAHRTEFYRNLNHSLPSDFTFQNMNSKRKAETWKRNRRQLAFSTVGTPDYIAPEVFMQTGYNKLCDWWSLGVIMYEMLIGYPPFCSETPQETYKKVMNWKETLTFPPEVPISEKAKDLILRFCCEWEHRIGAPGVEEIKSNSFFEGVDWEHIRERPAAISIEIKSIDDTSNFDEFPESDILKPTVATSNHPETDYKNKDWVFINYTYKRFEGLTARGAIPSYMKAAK
# Sequence of Phosphatidylinositol 4-phosphate 3-kinase C2 domain-containing subunit beta (Homo sapiens) (O00750 whole entry, the tested form may be a part): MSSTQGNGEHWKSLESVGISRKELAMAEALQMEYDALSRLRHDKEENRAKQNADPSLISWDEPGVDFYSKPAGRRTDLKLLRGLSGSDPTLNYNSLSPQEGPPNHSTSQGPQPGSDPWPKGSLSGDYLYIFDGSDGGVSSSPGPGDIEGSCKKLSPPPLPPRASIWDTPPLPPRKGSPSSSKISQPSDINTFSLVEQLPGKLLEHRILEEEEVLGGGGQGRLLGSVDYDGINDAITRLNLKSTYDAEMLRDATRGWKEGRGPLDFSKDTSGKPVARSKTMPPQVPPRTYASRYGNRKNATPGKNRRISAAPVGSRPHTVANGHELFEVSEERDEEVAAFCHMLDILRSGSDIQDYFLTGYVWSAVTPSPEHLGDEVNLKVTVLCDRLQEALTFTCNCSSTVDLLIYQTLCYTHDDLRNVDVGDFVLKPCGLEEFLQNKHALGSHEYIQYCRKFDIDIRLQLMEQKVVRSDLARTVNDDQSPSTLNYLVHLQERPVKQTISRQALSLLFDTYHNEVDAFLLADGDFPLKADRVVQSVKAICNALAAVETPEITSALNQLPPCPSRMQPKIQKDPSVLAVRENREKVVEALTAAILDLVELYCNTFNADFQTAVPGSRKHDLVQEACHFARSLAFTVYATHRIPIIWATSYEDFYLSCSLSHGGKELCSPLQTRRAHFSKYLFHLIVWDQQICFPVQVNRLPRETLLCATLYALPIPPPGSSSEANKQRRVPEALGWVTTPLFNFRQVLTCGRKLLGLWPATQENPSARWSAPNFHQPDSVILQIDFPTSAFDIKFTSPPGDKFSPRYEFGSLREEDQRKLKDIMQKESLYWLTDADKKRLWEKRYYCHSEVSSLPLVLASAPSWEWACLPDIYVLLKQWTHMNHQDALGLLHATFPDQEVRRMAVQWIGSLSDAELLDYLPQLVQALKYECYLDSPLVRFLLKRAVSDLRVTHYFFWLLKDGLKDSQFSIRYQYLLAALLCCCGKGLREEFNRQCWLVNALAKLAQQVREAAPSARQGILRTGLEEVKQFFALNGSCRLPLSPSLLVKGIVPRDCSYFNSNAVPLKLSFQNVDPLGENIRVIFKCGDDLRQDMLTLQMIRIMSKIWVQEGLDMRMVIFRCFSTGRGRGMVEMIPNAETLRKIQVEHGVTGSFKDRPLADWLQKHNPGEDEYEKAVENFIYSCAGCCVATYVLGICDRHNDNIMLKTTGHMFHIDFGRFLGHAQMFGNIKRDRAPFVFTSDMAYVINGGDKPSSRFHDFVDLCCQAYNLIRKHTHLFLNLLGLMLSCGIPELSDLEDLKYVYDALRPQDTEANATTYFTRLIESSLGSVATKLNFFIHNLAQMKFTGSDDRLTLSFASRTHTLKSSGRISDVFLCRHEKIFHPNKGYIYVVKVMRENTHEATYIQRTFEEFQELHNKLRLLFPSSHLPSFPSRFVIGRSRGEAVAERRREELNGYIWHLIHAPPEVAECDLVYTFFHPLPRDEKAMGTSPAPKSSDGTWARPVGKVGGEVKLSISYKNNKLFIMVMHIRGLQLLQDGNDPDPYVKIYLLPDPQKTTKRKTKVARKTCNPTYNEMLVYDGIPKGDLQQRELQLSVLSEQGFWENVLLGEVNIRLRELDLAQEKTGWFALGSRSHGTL
# Sequence of Serine/threonine-protein kinase 32A (Homo sapiens) (Q8WU08 whole entry): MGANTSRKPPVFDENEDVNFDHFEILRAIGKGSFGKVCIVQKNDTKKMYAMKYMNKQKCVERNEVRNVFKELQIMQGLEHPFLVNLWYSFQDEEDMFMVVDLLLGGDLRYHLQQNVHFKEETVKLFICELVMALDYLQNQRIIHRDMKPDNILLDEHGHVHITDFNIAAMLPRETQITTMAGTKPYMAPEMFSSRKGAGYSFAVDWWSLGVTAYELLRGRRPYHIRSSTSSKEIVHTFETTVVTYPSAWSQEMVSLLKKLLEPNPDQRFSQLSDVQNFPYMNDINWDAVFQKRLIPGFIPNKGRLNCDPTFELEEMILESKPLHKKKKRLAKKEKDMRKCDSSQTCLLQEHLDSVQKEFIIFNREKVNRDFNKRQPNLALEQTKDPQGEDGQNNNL
smiles,measurement,setting,value
Cc1cc(C)cc([C@@H]2c3cc(C)ccc3NC(=O)CN2C(=O)c2ccc(Br)s2)c1,% of activity,[1]; at 1 µM,102%
same,% of activity,[1]; at 10 µM,97%
CCN(CC)CCCCNc1ncc2cc(-c3cc(OC)cc(OC)c3)c(NC(=O)NC(C)(C)C)nc2n1,% of control,[2],100%
Nc1cnc(N2CCc3cc(S(=O)(=O)Nc4c(F)cc(Cl)cc4F)cc(N4CCCC4=O)c32)nc1 [TP-020n],% of control,[3],83%
CNC(=O)Nc1ccc(-c2nc(N3CC4CCC(C3)O4)c3cnn(C4CCC5(CC4)OCCO5)c3n2)cc1,% of inhibition,[4],3%
same,% of control,[5],97%
same,% of control,[6],99%
N#Cc1cccc(-c2c[nH]c3ncnc(N4CCOCC4)c23)c1,% of control,[7],88%
same,% of inhibition,[8],3%
Cc1cc([C@@H](C)Nc2ccccc2C(=O)O)c2nc(N3CCOCC3)cc(=O)n2c1 [AZD-6482],% of control,[9],100%
CC[C@@H]1[C@H](F)C(=O)N[C@@H]1COc1nccc2cc(C(N)=O)c(OC)cc12 [ZIMLOVISERTIB],% of inhibition,[10],-5.07%
O=C(NOC[C@H](O)CO)c1ccc(F)c(F)c1Nc1ccc(I)cc1F,% of control,[11],81%
Cn1cc(-n2cnc3c(NCc4nc5cc(Cl)c(Cl)cc5[nH]4)nc(N4CCOCC4)nc32)cn1,% of inhibition,[12],3.44%
Cc1cnc(Nc2ccc(F)cc2Cl)nc1-c1c[nH]c(C(=O)N[C@H](CO)c2cccc(Cl)c2)c1,% of inhibition,[13],7%
